These results are taken from PMC9699089 (Pathogens, 2022).

Like-named read-outs stand apart in the source and are kept apart here.

The Kd is the equilibrium constant for the complex coming apart. What is called IC50 is the concentration at which inhibition is half-maximal.

Assay [1] relates to human telomeric sequence F21T G-quadruplex. Kind of assay: FRET melting assay, F21T. Type of assay: binding. The settings on record: compound 2 μM, oligonucleotide 0.2 μM, K+ conditions.
For assay [2], the target named is G4-forming oligonucleotide Pf1 (d[(G3T3A)3G3]). Put plainly: Native electrospray mass spectrometry, Pf1. The format is binding, Plasmodium. More on the design: key to Kd Pf1, stoichiometry 1 (Kd1) / Kd Pf1, stoichiometry 2 (Kd2): n.b.: no binding detected; <LOQ: binding detected but below limit of quantitation. Particulars: 100 mM TMAA, 1 mM KCl. As for the experimental part:
Oligonucleotides were purchased in the lyophilized form from Eurogentec (RP-cartridge purification), and dissolved at 1 mM in pure water. TMAA (1 M) was purchased from Santa Cruz Biotechnology and potassium chloride (purity > 99.99%) from Sigma Aldrich (Sigma Aldrich, Saint-Quentin-Fallavier, France). The sample solutions contained 10 µM oligonucleotide and 10 (for CD only) or 20 µM ligand, in a 100 mM TMAA, 1mM KCl buffer. The solutions were incubated overnight at 4 °C before analysis.
The sample solutions were injected at a 10 µM strand concentration on an Agilent 6560 DTIMS-Q-TOF instrument (Agilent Technologies, Santa Clara, CA, USA), equipped with a dual-ESI source operated in the negative ion mode in soft conditions. The following parameters were used: fragmentor 320 V, trap fill time 1000 µs, trap release time 200 µs, trap entrance grid delta 2 V. The drift tube was filled with helium and the pressure was fixed at 3.89 ± 0.01 Torr (measured by a capacitance diaphragm gauge CDG-500, Agilent Technologies).
The MS data were extracted using the IM-MS Browser (v. B.08.00; Agilent Technologies). The peak area intensity of each species at the 5- charge state was extracted from their corresponding m/z range (encompassing potassium adducts), and baseline subtracted. The concentrations of all species (free DNA, free ligands, and complexes) and corresponding dissociation constants were determined as previously described.

The subject of assay [3] is Trypanosoma 9 and 11 chromosomic sequence FTrypBT (FEBR1T) G-quadruplex. Put plainly: FRET melting assay, FtrypBT. Type of assay: binding, Trypanosoma brucei brucei. The settings on record: compound 2 μM, oligonucleotide 0.2 μM, K+ conditions. An outline of the steps: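 Dual-labelled FAM/TAMRA oligonucleotides (0.2 µM) pre-folded in 10 mM lithium cacodylate pH 7.2, 10 mM KCl, 90 mM LiCl, with 2 µM compound. FAM emission (ex 492/em 516 nm) followed from 25 to 95 °C at 1 °C/min; Tm is the temperature at normalized emission 0.5, compared with and without compound.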

Assay [4] deals with L. donovani (MHOM/IN/00/DEVI) promastigotes. Kind of assay: In vitro antileishmanial activity on promastigotes, MTT assay. Particulars: Leishmania donovani, 72 h incubation, mean +/- SD of three independent experiments. The format is cell-based. Put shortly:
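Log-phase L. donovani MHOM/IN/00/DEVI promastigotes at 10^6 parasites/mL in Schneider's medium with 20% FCS were exposed to compounds for 72 h at 27 °C, final DMSO under 0.5%. Viability was read by MTT reduction over 4 h, absorbance 570 nm (630 nm reference). IC50 came from regression, three independent experiments.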

Assay [5] has as its system T. brucei brucei AnTat 1.9. Kind of assay: In vitro antitrypanosomal activity, Alamar Blue assay. The format is cell-based, Trypanosoma brucei brucei. Particulars: Trypanosoma brucei, slender bloodstream trypomastigotes, AnTat 1.9 strain; mean +/- SD of three independent experiments; read-out: Trypanosoma brucei brucei IC50 Values Trypanos Antat 1.9. An outline of the steps:
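Bloodstream T. brucei brucei AnTat 1.9 cultured in supplemented MEM with Earle's salts and exposed to compounds in duplicate for 69 h at 37 °C. Alamar Blue then added for 5 h, with fluorescence read at ex 530/em 590 nm.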
(In general: Resazurin is reduced to fluorescent resorufin, in cell work by metabolically active cells.)

Setting [6] is: 1:1 ligand:DNA complex, read-out: Kd Pf1, stoichiometry 1 (Kd1).
The mark [7] stands for this setting: 2:1 ligand:DNA complex, read-out: Kd Pf1, stoichiometry 2 (Kd2).

As for `CN(C)CCCCNCc1cc(-c2ccccc2)c2ccc3c(-c4ccccc4)cc(CNCCCCN(C)C)nc3c2n1` [Compound 1c, 2,9-Bis[(4-dimethylaminobutyl)aminomethyl]-4,7-diphenyl-1,10-phenanthroline], in assay [1], the “ΔTm F21T” value came out at 13.2 °C. Also, the dissociation constant Kd in assay [2] (setting [6]) was 23 µM. For the same compound, in assay [2] (2:1 ligand:DNA complex), the “Kd Pf1, stoichiometry 2 (Kd2)” value was “n.b”. Moreover, the “ΔTm FtrypBT” value in assay [3] was 10.6 °C. For the same compound, the half-maximal inhibitory concentration (IC50) was greater than 12.5 µM in assay [4] and 0.86 ± 0.16 µM in assay [5].

With `CN(C)CCCCCNCc1cc(-c2ccccc2)c2ccc3c(-c4ccccc4)cc(CNCCCCCN(C)C)nc3c2n1` [Compound 1d, 2,9-Bis[(5-dimethylaminopentyl)aminomethyl]-4,7-diphenyl-1,10-phenanthroline], in assay [1], the “ΔTm F21T” value is 18.1 °C. Also, the figures for the Kd in assay [2] (setting [6]) and in assay [2] (setting [7]) were 8 µM and 24 µM, respectively. For the same compound, in assay [3], the “ΔTm FtrypBT” value turned out to be 14.7 °C. Further, the half-maximal inhibitory concentration (IC50) is greater than 12.5 µM in assay [4] and 1.42 ± 0.1 µM in assay [5].

Turning to `c1ccc(-c2cc(CNCCCN3CCCC3)nc3c2ccc2c(-c4ccccc4)cc(CNCCCN4CCCC4)nc23)cc1` [Compound 1l], in assay [1], the “ΔTm F21T” value is 14.5 °C. In addition, the Kd came out at 10 µM in assay [2] (setting [6]) and 37 µM in assay [2] (setting [7]). The “ΔTm FtrypBT” value in assay [3] is 11.6 °C. The IC50 in assay [4] was greater than 12.5 µM; in assay [5], 1.13 ± 0.06 µM.

Regarding `c1ccc(-c2cc(CNCCc3ccccn3)nc3c2ccc2c(-c4ccccc4)cc(CNCCc4ccccn4)nc23)cc1` [Compound 1m], the “ΔTm F21T” value in assay [1] worked out at 1.0 °C. In addition, the “Kd Pf1, stoichiometry 1 (Kd1)” value in assay [2] (1:1 ligand:DNA complex) is reported as “n.b”. The “ΔTm FtrypBT” value in assay [3] is 1.8 °C. The compound also gave a 50% inhibitory concentration (IC50) in assay [4] greater than 12.5 µM.
